Measurements from US20180030537A1, “PUMA, A PRO-APOPTOTIC GENE, AS A NOVEL MOLECULAR BIOMARKER FOR TNFALPHA-INDUCED HUMAN ISLET DAMAGE” (CITY OF HOPE, priority 2010, published 2018).
Entries after “also recorded” stand apart in the source; their conditions may differ.

Columns and labels:
islets = conditions: in vitro; cited from earlier work
NOD mice = conditions: cited from earlier work
human islets [1] = assay: Drug compound screening in single human islets: TNF-α induced PUMA, IL-8 and TNF mRNA; assay type: cell-based; conditions: pre-incubation 1 hour, 10 μM (Etanercept 0.1 μg/mL), then 5 ng/mL TNF-α 4 hours, vs control (vehicle alone); for TNF-α induced up regulation of PUMA mRNA (% ACTB): FIG. 4A; for TNF-α induced up regulation of IL-8 mRNA (% ACTB): FIG. 4B; for TNF-α induced up regulation of endogenous TNF mRNA (% ACTB): FIG. 4C
Protocol: FIGS. 4A-C. PUMA, IL-8 and TNF-α are used as markers to screen drug compounds protecting islets from TNF-α stimulus. Single human islets in hextuplicate were pre-incubated with various drugs (all used at 10 μM except Etanercept (0.1μ/ml)) or solvent (DMSO) at 37° C. for 1 hour, followed by stimulation with or without 5 ng/ml of TNF-α for an additional 4 hours. FIG. 4A: PUMA and ACTB mRNA were quantified and the results are expressed as % ACTB (*p<0.05 vs. control islets with TNF-α). FIG. 4B: IL-8 was quantified and the results are expressed as % ACTB. FIG. 4C: Endogenous TNF-α was quantified and the results are expressed as % ACTB. Together, the results of FIGS. 4A-C show an example of a compound screening system using PUMA, IL-8 and TNF mRNA.
Human islets and acinar cells isolated for research use were obtained from the Southern California Islet Cell Resources (SC-ICR) Center, Beckman Research Institute of the City of Hope (Duarte, Calif.) 1 to 3 days after isolation. The donor age ranged from 18 to 67 (48±14) years and included both sexes. Islet preparations with >70% purity and >90% viability were used. The use of human islets and acinar cells in this study was approved by the Institutional Review Board of the City of Hope. For mRNA experiments, islets between 150 μm to 300 μm in diameter (medium size islet) were handpicked in hexuplicate by experienced personnel under a dissection microscope without staining. Each handpicked islet was cultured individually in a non-tissue culture treated 96 well plate (Sarstedt, Newton, N.C.) with a CMRL (Mediatech Inc., Holly Hill, Fla.) based serum-free medium, which is used to culture human islets for clinical transplantation. Islets were treated with or without recombinant human TNF-α (0, 1, 5, 50 ng/mL) and/or recombinant human IFNγ (0, 10, 100, 1000 U/mL) for up to 16 hours. For other islet experiments, 500 to 1000 islet equivalent (IEQ) were cultured (500 IEQ/mL of medium) in a Petri dish for up to 24 hours in the same condition described above unless otherwise specified. For acinar cell experiments, acinar cells were kept in islet culture medium at 4° C. immediately after the isolation and used within 24 hours. Aliquots of 5-10 acinar cell clusters in triplicates were cultured with islet culture medium with or without TNF-α for up to 16 hours. For drug compound screening experiments, islets were pre-incubated with Etanercept, FK506, Cyclosporine (CsA), Rapamycin, Imatinib mesylate, Janus Kinase (JAK) inhibitor or p38 inhibitor, SB203580, for 1 hour, and then 5 ng/mL TNF-α was added to the islet culture for 4 hours. All the compounds except Etanercept (0.1 μg/mL) were dissolved in dimethyl sulfoxide (DMSO) and used at a concentration of 10 μM (all compounds are gifts from Hitachi Chemical Research Center).
RNA purification and PCR was performed as described previously (32). Briefly, following culture, islets were transferred to a 96-well filter plate (Hitachi Chemical Research Center-HCR, Irvine, Calif.)(44) and 50 μL of Lysis Buffer (HCR) containing a cocktail of specific reverse primers was applied to each well. Poly(A)+mRNA isolation was performed using the Hem(A)+™ System (Hitachi Chemical Research Center, Irvine, Calif.). The resultant cell lysates were transferred to oligo(dT)-immobilized microplates (GenePlate, HCR) for poly(A)^+ mRNA purification (45). The cDNA was directly synthesized with 30 μL of solution in each well: specific primer-primed cDNA in the liquid phase and oligo(dT)-primed cDNA in the solid phase (44). The cDNA in the solution was diluted by adding 30 μL nuclease-free water, with 4 μL of the diluted cDNA used for SYBR Green PCR (BioRad, Hercules, Calif.) (46). Each gene was amplified individually. The cycle threshold (Ct) was determined using analytical software (SDS, Applied Biosystems, Foster City, Calif.). Differences in Ct between the target and control mRNA (ΔCt) are used to quantify the relative amount of each target, calculated as 2^−ΔCt. […]

human islets [2] = assay: Western blot of PUMA and phospho-p65 in cultured human islets; assay type: cell-based
Protocol: All data are presented as a mean±standard error.
In some experiments, islets were pre-incubated with 10 μM NFκB inhibitor; BAY11-7082 for 1 hour before cytokine stimulation. Islet cell lysis and western blot was performed as previously described (49).

human islets [3] = assay: IL-1β stimulation of single human islets, mRNA by RT-PCR; assay type: cell-based; conditions: recombinant IL-1β up to 100 U/mL, up to 16 hours, n=1
Protocol: FIGS. 16A-D. IL-1β up-regulates PUMA mRNA in human islets. Single islets in sextuplicate were stimulated with or without recombinant IL-1β (0.10 and 100 U/mL) for up to 16 hours. FIG. 16A) PUMA, FIG. 16B) IL-8, FIG. 16C) endogenous IL-1B and FIG. 16D) endogenous TNF mRNA in islets were normalized by β actin (% ACTB) mRNA assessed by RT-PCR (n=1). IL-1β induced PUMA, IL-8, endogenous IL-1 and TNF in human islets.
In addition to TNF-α, the expression of PUMA was examined following stimulation with […]. […] alone stimulation induced PUMA, IL-8, TNF and IL1B mRNA within 4 hours. […] IL-1β-induced PUMA expression can also be explained through the NFκB pathway.

[4] = children with new onset of T1DM; cited from earlier work
human islets [5] = assay: Preproinsulin precursor mRNA synthesis and total insulin release of single human islets; assay type: cell-based; conditions: 16 hours, high glucose; TNF-α 50 ng/mL; IFNγ 10-1000 U/ml; FIG. 3B, 3C
Protocol: FIG. 3B) The glucose induced newly synthesized preproinsulin precursor mRNA measured by pre-spliced preproinsulin mRNA normalized by pre- and post-spliced preproinsulin mRNA (% exon) in the corresponding islets with or without 50 ng/ml. TNF-α was also examined (n=3, *p<0.05). FIG. 3C) Glucose induced preproinsululin precursor mRNA synthesis with or without TNF-α (1, 5 and 50 ng/ml) and/or IFNγ (10, 100 and 1000 U/ml) from a single human islet in hextuplicate. […] All data are presented as a mean±standard error.
Hand picked human islets were cultured with 100 uL of RPMI 1640 medium containing 5% fetal bovine serum and either low-glucose (3.3 mmol/L) or high-glucose (17 mmol/L) for 16 hours. Preproinsulin mRNA synthesis was measured from the islets by the methods described above. Pre-spliced preproinsulin mRNA (preproinsulin precursor mRNA) was normalized by pre- and post-spliced preproinsulin mRNA as described previously (32).
The effect of TNF-α and/or IFN-γ on β cell function was examined by analyzing the ability of human islets to synthesize and release insulin. […] The dose dependent effect of TNF-α and/or IFN-γ on preproinsulin precursor mRNA synthesis was also examined.

human islets [6] = assay: Cytokine stimulation of single human islets, mRNA quantification; assay type: cell-based; conditions: TNF-α 1, 5, 50 ng/ml and/or IFNγ 10, 100, 1000 U/ml
Protocol: Single islets were stimulated with or without 50 ng/ml TNF-α for 16 hours. Each dot indicates the result of one islet lot tested in hextuplicate. The tests were performed using 4 different human islet lots. Bars indicate the mean of 4 lots. Each gene expression was normalized by ACTB (a gene encoding β actin), and the fold increase was calculated by dividing TNF-α treated islets by control islets (*p<0.01, n=4). […] FIGS. 8B-D) PUMA (FIG. 8B), IL-8 (FIG. 8C) and TNF-α (FIG. 8D) expression from single human islets (n=6) stimulated with 0 (open circles), 1 (solid triangles), 5 (solid squares) and 50 ng/ml (solid circles) TNF-α for 0, 1, 4, 16 hours in 3 independent cases. Dose dependent expression of (FIG. 8E) PUMA, (FIG. 8F) IL-8 and (FIG. 8G) TNF-α in human islet at the 4 hour time point (n=3). […] (FIG. 8K) PUMA and (FIG. 8L) IL-8 expression in human islets stimulated with or without TNF-α (1, 5, 50 ng/ml) and/or IFNγ (10, 100, 1000 U/ml) for 4 hours. […] All data are presented as a mean±standard error.
Human islets and acinar cells isolated for research use were obtained from the Southern California Islet Cell Resources (SC-ICR) Center, Beckman Research Institute of the City of Hope (Duarte, Calif.) 1 to 3 days after isolation. The donor age ranged from 18 to 67 (48±14) years and included both sexes. Islet preparations with >70% purity and >90% viability were used. […]

Cc1ccc(NC(=O)c2ccc(CN3CCN(C)CC3)cc2)cc1Nc1nccc(-c2cccnc2)n1 [Imatinib]
protection of islets from combined cytokines (islets): protect islets from combined cytokines
spontaneous onset of diabetes (NOD mice): prevents the spontaneous onset of diabetes
TNF-α induced up regulation of PUMA mRNA (% ACTB) (human islets [1]): reduced the up regulation
TNF-α induced up regulation of IL-8 mRNA (% ACTB) (human islets [1]): reduced the up regulation
TNF-α induced up regulation of endogenous TNF mRNA (% ACTB) (human islets [1]): reduced the up regulation

Cc1ccc(S(=O)(=O)/C=C/C#N)cc1 [BAY11-7082]
PUMA expression induced by the combination of TNF-α and IFNγ (western blot) (human islets [2]; 10 μM pre-incubation 1 hour, TNF-α 50 ng/ml + IFNγ 1000 U/ml, FIG. 2C): did not inhibit PUMA expression

IL-1β: recombinant IL-1β; cytokine stimulus
PUMA mRNA (% ACTB) in human islets (human islets [3]; FIG. 16A): induced; also recorded: returned to the normal level by 16 hours
IL-8 mRNA (% ACTB) in human islets (human islets [3]; FIG. 16B): induced
endogenous IL-1B mRNA (% ACTB) in human islets (human islets [3]; FIG. 16C): induced
endogenous TNF mRNA (% ACTB) in human islets (human islets [3]; FIG. 16D): induced

Etanercept
HbA1C levels [4]: lowering HbA1C levels
endogenous insulin production [4]: increased levels of endogenous insulin production
TNF-α induced up regulation of PUMA mRNA (% ACTB) (human islets [1]): prevented TNF-α induced up regulation
TNF-α induced up regulation of IL-8 mRNA (% ACTB) (human islets [1]): prevented TNF-α induced up regulation
TNF-α induced up regulation of endogenous TNF mRNA (% ACTB) (human islets [1]): prevented TNF-α induced up regulation

B1: IFN-γ: recombinant human IFNγ, R&D Systems; cytokine stimulus (protein, UniProt P01579 24-161, looked up)
Interferon gamma: QDPYVKEAENLKKYFNAGHSDVADNGTLFLGILKNWKEESDRKIMQSQIVSFYFKLFKNFKDDQSIQKSVETIKEDMNVKFFNSNKKKRDDFEKLTNYSVTDLNVQRKAIHELIQVMAELSPAAKTGKRKRSQMLFRG
glucose-induced preproinsulin precursor mRNA synthesis (human islets [5]): did not impair
PUMA protein expression (western blot) (human islets [2]; TNF-α 50 ng/mL and/or IFN-γ 1000 U/mL, FIG. 2A): but not by IFN-γ (1000 U/mL) alone
PUMA mRNA expression in human islets (human islets [6]; 4 hours, FIG. 8K): did not induce PUMA
IL-8 mRNA expression in human islets (human islets [6]; FIG. 8C, 8F, 8L): did not induce IL-8 expression
